Reference: EP1200406B1, “CYCLIC AMIDES AND IMIDES HAVING SELECTIVE ANTAGONIST ACTIVITY AT ALPHA-1D ADRENERGIC RECEPTOR” (RECORDATI INDUSTRIA CHIMICA E FARMACEUTICA S.p.a., priority 1999, dated 2001)

Columns and labels:
[1] = molecular target: T1, Rat aorta α1D (Rattus norvegicus, UniProt P23944); test: Functional antagonism of noradrenaline-induced contraction, rat aorta strips; assay type: cell-based, Sprague Dawley rats; conditions: noradrenaline as agonist, 30 minutes incubation, Schild plot; read-out: Functional affinity pKB, Rat aorta α1D (converted)
T1 construct: from tissue; host or cells: rat thoracic aorta, helicoidal strips
T1 sequence (P23944 1-561): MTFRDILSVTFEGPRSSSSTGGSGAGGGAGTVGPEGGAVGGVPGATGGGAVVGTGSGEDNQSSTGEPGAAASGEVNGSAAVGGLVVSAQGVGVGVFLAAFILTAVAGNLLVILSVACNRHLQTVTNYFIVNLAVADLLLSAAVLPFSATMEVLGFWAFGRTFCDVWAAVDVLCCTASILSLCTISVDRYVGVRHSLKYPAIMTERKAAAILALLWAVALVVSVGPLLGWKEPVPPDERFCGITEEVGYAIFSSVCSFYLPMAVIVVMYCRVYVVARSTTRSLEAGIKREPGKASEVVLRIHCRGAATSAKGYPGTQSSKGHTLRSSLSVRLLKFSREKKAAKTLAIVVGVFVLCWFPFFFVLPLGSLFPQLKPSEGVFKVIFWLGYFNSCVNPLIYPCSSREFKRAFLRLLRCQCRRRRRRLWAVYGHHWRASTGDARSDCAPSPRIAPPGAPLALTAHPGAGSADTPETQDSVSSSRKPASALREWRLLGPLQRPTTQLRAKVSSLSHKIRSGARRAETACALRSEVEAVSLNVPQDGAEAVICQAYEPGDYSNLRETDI
Method: In vitro assessment of functional antagonism for α1-adrenoceptor subtypes
Thoracic aorta was obtained from Sprague Dawley rats, cut in helicoidal strips and placed in Krebs solution containing desmethylimipramine (0.1 µM), corticosterone (1 µM), propranol (1 µM) and yohimbine (0.1 µM). The strips were mounted for isotonic tension recording in an organ bath containing the above Krebs buffer enriched and aerated constantly with 95% O2 and 5% CO2, maintained at 37°C and loaded with 1.5 g. After an equilibration period, the strips were primed twice with 10 µM noradrenaline, then concentration/response-to-the-agonist curves were constructed before (basal) and after 30 minutes incubation with single antagonist concentrations (response). The Schild-plot parameters were evaluated by linear-regression analysis according to Tallarida and Murray (Manual of Pharmacologic Calculations with Computer Programs, 53-56, Springer-Verlag).

[2] = system: conscious rats with partial bladder-outlet obstruction; test: Cystometry in conscious rats with infravesical outflow obstruction by partial urethral ligature; assay type: in vivo, Female Sprague Dawley rats; conditions: 0.3 mg/kg i.v.
Method: Effects on cystometric parameters in conscious rats with […] outflow obstruction by partial urethral ligature. Female Sprague Dawley rats of 225-275 g body weight [Crl: CD(SD)BR, from Charles River Italia, Calco, Como] were used. The animals were housed with free access to food and water and maintained on a forced 12 hour alternating light dark cycle at 22-24°C for at least one week, except during experiment performance. In order to obtain a partial obstruction of the urethra, the method previously reported by Malmgren (Malmgren A. et al., J. UroL 137, 1291-1294, 1987; Neurourol. […] Pharmacol. […] The rats were anaesthetised with intraperitoneal (i.p.) administration of 3 ml/kg of Equithensin solution (pentobarbital 1.215 g, chloral hydrate 5.312 g, magnesium sulphate 2.657 g, ethanol 12.5 ml, propylene glycol 49.5 ml, distilled water to 125 ml of final volume) and then the bladder and proximal urethra were exposed via an abdominal midline incision. A silk ligature was placed around the urethra and tied in the presence of an intraluminally placed indwelling polyethylene cannula with an outside diameter of 1.22 mm. After removing the polyethylene cannula, the abdominal wall was sutured and then antibiotic medication (penicillin G 200000 I.U./kg and streptomycin 260 mg/kg i.p.) was performed. After three weeks of obstruction the animals were prepared for cystometry. The animals, anesthetized as reported above, were placed in a supine position and a midline incision was made in the shaved and cleaned abdominal wall. The urinary bladder was exposed and gently freed from adhering tissues, emptied and then cannulated, via an incision at the dome, with a polyethylene cannula (0.58 mm inside diameter and 0.96 mm outside diameter), which was permanently sutured with silk thread. For intravenous bolus injection a similar polyethylene tubing filled with physiological saline containing sodium heparin (40 I.U./ml) was inserted into the jugular vein. The cannulae were exteriorised through a subcutaneous tunnel in the retroscapular area, where they were connected with a plastic adapter, in order to avoid the risk of removal by the animal. Two days after bladder catheter implantation, the animals, fasted overnight, were placed in Bollman's cages or in particular plastic cages which allowed some lateral and back and forth movement of the rats, allowing measurements of micturition volume (MV). After a stabilisation period of 20 minutes, the free tip of the bladder cannula was connected to a pressure transducer and to a peristaltic pump for a continuous infusion of warm saline solution (37° C), into the urinary bladder. In order to shorten the time-period of saline infusion necessary to provoke micturition in the obstructed rats, a filling rate of the bladder of 10 ml/h was chosen. During infusion of saline into the bladder, the intravesical pressure signal and urine volume micturated were continuously recorded on chart polygraph. […] BVC (in ml) was defined as the volume of saline infused into the bladder from the start of the infusion to micturition. […] MV (in ml), defined as the volume of expelled urine during each single micturition, was recorded by means of a force displacement transducer connected to the polygraph and measuring the urine collected in a small reservoir placed under the cage. Basal values of the parameters above reported were evaluated as the mean of the values obtained in two complete and reproducible cystometrograms before treatment (time 0). Then the animals were treated intravenously by bolus injection with the test compound under continuous infusion of saline into the bladder. The parameter changes after compound injection (first cystometrogram and those recorded approximately after 30 and 60 minutes) were compared with the values recorded before injection (basal values).

- Kb [1]: 1.02 nM
SMILES: O=C1CC2(CCCC2)CC(=O)N1CCN1CCN(c2cc(Cl)ccc2Cl)CC1 [Example 1, 8-{2-[4-(2,5-Dichlorophenyl)-1-piperazinyl]-ethyl}-8-azaspiro[4.5]decane-7,9-dione]
- BVC mean values, change [2]: 20-30%
- changes in MP values [2]: no significant changes
- BVC (bladder volume capacity), % changes vs basal values ([2]; 30 minutes): 22%
- MP (micturition pressure), % changes vs basal values ([2]; 30 minutes): -7%
- MV (micturition volume), % changes vs basal values ([2]; 30 minutes): 42%
- NMC – A (non-micturition contractions, amplitude), % changes vs basal values ([2]; 30 minutes): -33%
- NMC – F (non-micturition contractions, frequency), % changes vs basal values ([2]; 30 minutes): -38%
- BVC (bladder volume capacity), % changes vs basal values ([2]; 60 minutes): 30%
- MP (micturition pressure), % changes vs basal values ([2]; 60 minutes): -6%
- MV (micturition volume), % changes vs basal values ([2]; 60 minutes): 28%
- NMC – A (non-micturition contractions, amplitude), % changes vs basal values ([2]; 60 minutes): -38%
- NMC – F (non-micturition contractions, frequency), % changes vs basal values ([2]; 60 minutes): -23%
- BVC (bladder volume capacity), % changes vs basal values ([2]; First cystometrogram): 26%
- MP (micturition pressure), % changes vs basal values ([2]; First cystometrogram): -2%
- MV (micturition volume), % changes vs basal values ([2]; First cystometrogram): 35%
- NMC – A (non-micturition contractions, amplitude), % changes vs basal values ([2]; First cystometrogram): -35%
- NMC – F (non-micturition contractions, frequency), % changes vs basal values ([2]; First cystometrogram): -24%
- frequency and amplitude of the non-voiding contractions ([2]; immediately after the injections): rapid decrease
